# Results published in ChEMBL document CHEMBL1201862, “PubChem BioAssay data set” (2004).
# Active and inactive are the calls of the source.
# Experiments:
# [1] = AlphaScreen signal interference compounds, dose response, artefact control for ARNT-TACC3 interaction inhibitor project, biochemical, luminescence, cherry-pick (AID 651705); assay type: functional;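 note: AlphaScreen bead proximity signal that flags compounds interfering with the detection technology; potency reflects signal decrease which marks the compound as an assay artifact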
# [2] = test system: Streptococcus sp. 'group A'; experiment: growth inhibition of control SK(-) GAS strain, dose response, counter-screen for streptokinase expression inhibitor project, luminescence, kanamycin, BacTiterGlo, confirmation (AID 1900); assay type: functional, organism-based
# INS1 = experiment: beta cell apoptosis inhibitors, cytokine rescue, dose response, luminescence, retest (AID 449756); assay type: functional, cell-based; conditions: Rattus norvegicus, INS1;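 note: cell death triggered by IL-1 beta plus TNF-alpha plus IFN-gamma mixture; protective hits raise ATP signal compared with cytokine alone wells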
# Streptococcus = experiment: Group A Streptococcus viability loss, dose response, counter-screen for streptokinase expression inhibitor project, luminescence, BacTiterGlo (AID 1915); assay type: functional, organism-based;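 note: potency for reduction of bacterial viability or growth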
# Streptokinase A = molecular target: T1, Streptokinase A (Streptococcus pyogenes serotype M1, UniProt P10520); experiment: S. pyogenes streptokinase expression inhibitors, potency, dose response, plasminogen activation absorbance, OD405 (AID 1914); assay type: functional, Streptococcus pyogenes M1 GAS;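 note: secreted streptokinase activity via plasminogen activation per viability signal from cell pellet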
# T1 sequence (P10520 whole entry): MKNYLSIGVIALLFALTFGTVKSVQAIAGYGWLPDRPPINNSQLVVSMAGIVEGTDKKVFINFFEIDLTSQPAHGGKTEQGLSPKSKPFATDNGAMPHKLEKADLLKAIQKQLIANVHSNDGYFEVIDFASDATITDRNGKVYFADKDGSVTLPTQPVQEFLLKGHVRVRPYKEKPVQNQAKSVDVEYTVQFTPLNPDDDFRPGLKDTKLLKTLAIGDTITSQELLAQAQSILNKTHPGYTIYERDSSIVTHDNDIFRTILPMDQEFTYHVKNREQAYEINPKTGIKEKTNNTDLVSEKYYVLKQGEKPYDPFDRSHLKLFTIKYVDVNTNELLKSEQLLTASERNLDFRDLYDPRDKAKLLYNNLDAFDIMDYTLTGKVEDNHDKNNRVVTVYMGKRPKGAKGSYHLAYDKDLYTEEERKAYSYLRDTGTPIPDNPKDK
# [3] = HepG2 cell cytotoxicity, dose response, cytotoxicity control, ATP luminescence, cherry-pick, activator set 2 (AID 1053143); assay type: functional, cell-based
# Fatty acid synthase [4] = molecular target: T2, Fatty acid synthase (Homo sapiens, UniProt P49327); experiment: FAS thioesterase domain inhibitors, dose response, biochemical, kinetic fluorescence intensity (AID 624326); assay type: functional;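 note: rate of fluorescence rise from hydrolysis of a fluorogenic O-methyl fluorescein ester substrate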
# T2 sequence (P49327 whole entry, the tested form may be a part): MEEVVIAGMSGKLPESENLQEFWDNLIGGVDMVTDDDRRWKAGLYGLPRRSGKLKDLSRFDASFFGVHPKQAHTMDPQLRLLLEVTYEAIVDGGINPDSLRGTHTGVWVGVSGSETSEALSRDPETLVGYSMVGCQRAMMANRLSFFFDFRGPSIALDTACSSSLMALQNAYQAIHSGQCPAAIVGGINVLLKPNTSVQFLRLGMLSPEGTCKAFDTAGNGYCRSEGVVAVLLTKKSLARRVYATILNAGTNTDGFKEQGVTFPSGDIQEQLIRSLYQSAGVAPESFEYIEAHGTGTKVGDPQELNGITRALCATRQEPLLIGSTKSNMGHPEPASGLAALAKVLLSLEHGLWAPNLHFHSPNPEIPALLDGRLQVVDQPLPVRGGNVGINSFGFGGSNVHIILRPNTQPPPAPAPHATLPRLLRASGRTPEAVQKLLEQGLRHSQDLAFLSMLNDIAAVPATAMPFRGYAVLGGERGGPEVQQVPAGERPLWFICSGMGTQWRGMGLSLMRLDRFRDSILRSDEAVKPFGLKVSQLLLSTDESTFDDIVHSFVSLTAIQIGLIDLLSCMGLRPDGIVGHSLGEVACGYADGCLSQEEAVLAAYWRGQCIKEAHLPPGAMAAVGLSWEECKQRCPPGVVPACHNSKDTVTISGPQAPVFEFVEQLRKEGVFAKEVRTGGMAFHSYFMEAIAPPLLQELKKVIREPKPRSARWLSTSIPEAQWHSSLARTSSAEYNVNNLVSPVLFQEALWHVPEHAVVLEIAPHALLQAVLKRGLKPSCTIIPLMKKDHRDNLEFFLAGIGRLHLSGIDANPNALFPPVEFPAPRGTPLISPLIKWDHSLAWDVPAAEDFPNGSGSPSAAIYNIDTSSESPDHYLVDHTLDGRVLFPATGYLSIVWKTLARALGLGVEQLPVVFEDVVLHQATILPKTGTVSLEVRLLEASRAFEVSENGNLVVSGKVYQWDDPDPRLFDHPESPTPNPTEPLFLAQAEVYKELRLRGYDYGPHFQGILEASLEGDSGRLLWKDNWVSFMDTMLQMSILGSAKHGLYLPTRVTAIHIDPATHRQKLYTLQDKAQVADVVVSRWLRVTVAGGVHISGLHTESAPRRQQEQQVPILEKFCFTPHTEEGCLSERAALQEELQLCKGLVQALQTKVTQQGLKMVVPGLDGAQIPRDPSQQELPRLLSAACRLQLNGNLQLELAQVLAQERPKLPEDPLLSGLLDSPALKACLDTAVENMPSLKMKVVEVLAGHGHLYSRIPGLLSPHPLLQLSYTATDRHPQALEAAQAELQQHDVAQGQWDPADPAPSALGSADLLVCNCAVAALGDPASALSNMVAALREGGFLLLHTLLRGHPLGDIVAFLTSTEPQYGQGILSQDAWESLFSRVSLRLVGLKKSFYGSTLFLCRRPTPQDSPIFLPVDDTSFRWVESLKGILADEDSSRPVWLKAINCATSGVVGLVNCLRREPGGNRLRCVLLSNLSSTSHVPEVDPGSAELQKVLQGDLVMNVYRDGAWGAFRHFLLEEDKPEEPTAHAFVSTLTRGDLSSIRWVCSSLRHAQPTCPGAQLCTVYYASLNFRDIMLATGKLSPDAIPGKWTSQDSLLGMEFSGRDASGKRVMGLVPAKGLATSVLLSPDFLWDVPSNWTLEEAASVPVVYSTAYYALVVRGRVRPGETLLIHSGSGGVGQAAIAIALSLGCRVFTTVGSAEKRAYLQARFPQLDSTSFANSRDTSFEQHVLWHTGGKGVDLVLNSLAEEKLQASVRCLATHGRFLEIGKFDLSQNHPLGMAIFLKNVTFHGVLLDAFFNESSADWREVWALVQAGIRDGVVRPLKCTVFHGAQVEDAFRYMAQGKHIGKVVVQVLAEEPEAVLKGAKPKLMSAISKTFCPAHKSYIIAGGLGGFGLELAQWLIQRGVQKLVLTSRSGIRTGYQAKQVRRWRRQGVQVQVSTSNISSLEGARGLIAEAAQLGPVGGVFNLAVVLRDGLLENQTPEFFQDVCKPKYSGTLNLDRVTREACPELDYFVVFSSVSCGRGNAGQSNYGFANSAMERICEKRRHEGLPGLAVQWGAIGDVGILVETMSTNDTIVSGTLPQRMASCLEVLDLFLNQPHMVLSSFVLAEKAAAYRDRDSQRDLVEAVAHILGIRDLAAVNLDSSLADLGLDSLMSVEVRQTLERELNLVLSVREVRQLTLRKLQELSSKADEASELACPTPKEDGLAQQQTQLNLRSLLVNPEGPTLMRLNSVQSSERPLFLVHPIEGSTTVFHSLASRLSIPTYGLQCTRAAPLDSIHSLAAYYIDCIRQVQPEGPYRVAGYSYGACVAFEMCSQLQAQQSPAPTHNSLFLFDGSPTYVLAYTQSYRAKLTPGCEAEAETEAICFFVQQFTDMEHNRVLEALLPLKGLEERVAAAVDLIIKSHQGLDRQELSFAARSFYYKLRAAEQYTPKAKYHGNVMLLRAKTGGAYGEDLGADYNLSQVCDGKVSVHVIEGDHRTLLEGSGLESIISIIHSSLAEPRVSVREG
# Fatty acid synthase [5] = molecular target: T2, Fatty acid synthase; experiment: FAS thioesterase domain inhibitors, dose response, biochemical, endpoint fluorescence intensity, uHTS hits (AID 624327); assay type: functional;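 note: fluorescence from hydrolysis of an O-methyl fluorescein acyl ester substrate by the enzyme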
# [6] = molecular target: T3, Polyadenylate-binding protein 1 (Homo sapiens, UniProt P11940); experiment: PABP1 MLLE–PAM2 interaction inhibitors, dose response, miRNA deadenylation inhibitor project, biochemical, fluorescence polarization, Cy5-PAM2 peptide, secondary (AID 602260); assay type: functional; conditions: read-out: IC50_Mean
# T3 sequence (P11940 whole entry): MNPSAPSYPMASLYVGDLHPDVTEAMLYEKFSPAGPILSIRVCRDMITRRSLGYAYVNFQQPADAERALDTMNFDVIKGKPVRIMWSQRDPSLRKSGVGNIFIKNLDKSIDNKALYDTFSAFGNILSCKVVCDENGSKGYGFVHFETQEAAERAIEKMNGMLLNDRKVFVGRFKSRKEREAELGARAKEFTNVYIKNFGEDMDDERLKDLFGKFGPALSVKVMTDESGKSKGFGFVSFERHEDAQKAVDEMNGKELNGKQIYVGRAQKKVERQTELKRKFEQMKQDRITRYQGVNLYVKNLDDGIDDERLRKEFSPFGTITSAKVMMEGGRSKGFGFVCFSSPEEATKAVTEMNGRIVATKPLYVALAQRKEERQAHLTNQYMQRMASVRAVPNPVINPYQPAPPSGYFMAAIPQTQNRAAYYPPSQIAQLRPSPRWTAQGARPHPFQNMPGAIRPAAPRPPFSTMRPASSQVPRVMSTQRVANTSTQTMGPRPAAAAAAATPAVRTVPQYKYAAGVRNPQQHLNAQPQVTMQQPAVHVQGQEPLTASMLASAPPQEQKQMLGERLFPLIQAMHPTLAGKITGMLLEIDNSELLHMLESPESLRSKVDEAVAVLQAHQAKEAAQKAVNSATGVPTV
# [7] = molecular target: T3, Polyadenylate-binding protein 1; experiment: PABP1 MLLE–PAM2 binding inhibitor potency, dose response, biochemical, fluorescence polarization, FITC-PAM2 peptide (AID 602259); assay type: functional; conditions: read-out: IC50_Mean
# Protein skinhead-1 = molecular target: T4, Protein skinhead-1 (Caenorhabditis elegans, UniProt P34707); assay type: functional
# T4 sequence (P34707 whole entry): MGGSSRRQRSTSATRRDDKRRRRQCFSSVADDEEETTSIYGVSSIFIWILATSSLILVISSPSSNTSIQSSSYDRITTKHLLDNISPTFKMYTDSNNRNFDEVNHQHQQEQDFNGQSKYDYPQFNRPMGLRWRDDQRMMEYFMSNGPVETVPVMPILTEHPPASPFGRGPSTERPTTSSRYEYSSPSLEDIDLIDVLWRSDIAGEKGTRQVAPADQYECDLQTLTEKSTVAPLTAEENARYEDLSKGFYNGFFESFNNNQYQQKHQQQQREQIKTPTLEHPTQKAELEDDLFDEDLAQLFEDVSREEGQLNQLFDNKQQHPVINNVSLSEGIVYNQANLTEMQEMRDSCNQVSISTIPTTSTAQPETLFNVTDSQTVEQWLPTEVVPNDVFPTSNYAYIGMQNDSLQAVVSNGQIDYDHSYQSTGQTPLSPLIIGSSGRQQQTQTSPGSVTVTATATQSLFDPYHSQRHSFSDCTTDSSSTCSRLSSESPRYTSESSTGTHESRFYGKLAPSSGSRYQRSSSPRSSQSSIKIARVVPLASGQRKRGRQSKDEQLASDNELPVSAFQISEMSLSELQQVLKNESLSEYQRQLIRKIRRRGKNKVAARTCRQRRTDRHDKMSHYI
# Nonstructural protein 1 = Nonstructural protein 1 (Influenza A virus, UniProt Q194T2); assay type: functional, Influenza A virus (A/California/07/2009(H1N1))
# Chain of Nonstructural protein 1 (Q194T2 whole entry): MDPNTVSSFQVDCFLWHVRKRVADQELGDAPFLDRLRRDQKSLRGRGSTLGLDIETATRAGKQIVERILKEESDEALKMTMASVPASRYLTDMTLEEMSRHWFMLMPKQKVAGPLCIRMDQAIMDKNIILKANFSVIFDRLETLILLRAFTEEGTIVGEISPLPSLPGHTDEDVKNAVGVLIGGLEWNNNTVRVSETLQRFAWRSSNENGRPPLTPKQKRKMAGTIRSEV
# Vero = experiment: cells; assay type: functional; conditions: Chlorocebus sabaeus
# [8] = molecular target: T5, Sentrin-specific protease 1 (Homo sapiens, UniProt Q9P0U3); experiment: Dose response confirmation of small molecule inhibitors of the catalytic domain of the SUMO protease, SENP1 in a FRET assay.; assay type: functional; conditions: read-out: IC50_Mean
# T5 sequence (Q9P0U3 whole entry): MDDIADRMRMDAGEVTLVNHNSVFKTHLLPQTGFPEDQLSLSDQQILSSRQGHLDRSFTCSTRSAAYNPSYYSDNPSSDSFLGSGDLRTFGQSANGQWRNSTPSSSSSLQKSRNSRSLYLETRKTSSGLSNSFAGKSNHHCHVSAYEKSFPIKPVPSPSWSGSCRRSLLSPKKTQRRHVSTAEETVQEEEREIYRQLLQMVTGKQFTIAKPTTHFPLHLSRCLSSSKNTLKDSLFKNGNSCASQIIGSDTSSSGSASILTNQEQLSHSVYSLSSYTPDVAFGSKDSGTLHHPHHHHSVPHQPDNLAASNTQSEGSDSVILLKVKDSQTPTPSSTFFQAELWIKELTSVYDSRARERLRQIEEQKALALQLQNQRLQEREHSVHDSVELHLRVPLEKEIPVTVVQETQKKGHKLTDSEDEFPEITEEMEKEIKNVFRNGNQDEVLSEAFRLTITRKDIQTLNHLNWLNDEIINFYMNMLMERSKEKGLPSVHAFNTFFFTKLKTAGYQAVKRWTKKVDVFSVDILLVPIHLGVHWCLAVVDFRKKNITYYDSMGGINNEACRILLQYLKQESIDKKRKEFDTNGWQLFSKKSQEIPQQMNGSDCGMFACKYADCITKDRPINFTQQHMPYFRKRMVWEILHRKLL
# [9] = molecular target: T5, Sentrin-specific protease 1; experiment: potency of human SENP1 inhibitors, dose response, biochemical, kinetic FRET (AID 651697); assay type: functional; conditions: read-out: IC50_Mean
# [10] = intracellular Trypanosoma cruzi inhibitors in host cells – cell-based, plate reader, cherry-pick samples, set 3, dose response (AID 651818); assay type: functional;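 note: compounds incubated with infected cells for about four days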
# [11] = molecular target: T6, Carboxy-terminal domain RNA polymerase II polypeptide A small phosphatase 1 (Homo sapiens, UniProt Q9GZU7); experiment: inhibitors of CTDSP1, concentration-response testing, biochemical assay, absorbance-based, actives from ultra-high-throughput screening (AID 540297); assay type: functional
# T6 sequence (Q9GZU7 whole entry): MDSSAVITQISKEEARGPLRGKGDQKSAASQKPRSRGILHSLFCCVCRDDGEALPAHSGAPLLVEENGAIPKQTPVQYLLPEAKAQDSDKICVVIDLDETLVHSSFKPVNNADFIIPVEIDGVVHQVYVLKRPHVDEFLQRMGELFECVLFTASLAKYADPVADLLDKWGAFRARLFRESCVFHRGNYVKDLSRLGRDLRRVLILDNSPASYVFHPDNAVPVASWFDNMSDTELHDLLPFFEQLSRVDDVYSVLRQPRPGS
# [12] = molecular target: T7, Short transient receptor potential channel 4 (Mus musculus, UniProt Q9QUQ5); experiment: mouse TRPC4 channel activators, dose response, cell-based, HEK293 TRPC4/mu-opioid, Fluo-4 calcium (AID 434937); assay type: functional
# T7 sequence (Q9QUQ5 whole entry): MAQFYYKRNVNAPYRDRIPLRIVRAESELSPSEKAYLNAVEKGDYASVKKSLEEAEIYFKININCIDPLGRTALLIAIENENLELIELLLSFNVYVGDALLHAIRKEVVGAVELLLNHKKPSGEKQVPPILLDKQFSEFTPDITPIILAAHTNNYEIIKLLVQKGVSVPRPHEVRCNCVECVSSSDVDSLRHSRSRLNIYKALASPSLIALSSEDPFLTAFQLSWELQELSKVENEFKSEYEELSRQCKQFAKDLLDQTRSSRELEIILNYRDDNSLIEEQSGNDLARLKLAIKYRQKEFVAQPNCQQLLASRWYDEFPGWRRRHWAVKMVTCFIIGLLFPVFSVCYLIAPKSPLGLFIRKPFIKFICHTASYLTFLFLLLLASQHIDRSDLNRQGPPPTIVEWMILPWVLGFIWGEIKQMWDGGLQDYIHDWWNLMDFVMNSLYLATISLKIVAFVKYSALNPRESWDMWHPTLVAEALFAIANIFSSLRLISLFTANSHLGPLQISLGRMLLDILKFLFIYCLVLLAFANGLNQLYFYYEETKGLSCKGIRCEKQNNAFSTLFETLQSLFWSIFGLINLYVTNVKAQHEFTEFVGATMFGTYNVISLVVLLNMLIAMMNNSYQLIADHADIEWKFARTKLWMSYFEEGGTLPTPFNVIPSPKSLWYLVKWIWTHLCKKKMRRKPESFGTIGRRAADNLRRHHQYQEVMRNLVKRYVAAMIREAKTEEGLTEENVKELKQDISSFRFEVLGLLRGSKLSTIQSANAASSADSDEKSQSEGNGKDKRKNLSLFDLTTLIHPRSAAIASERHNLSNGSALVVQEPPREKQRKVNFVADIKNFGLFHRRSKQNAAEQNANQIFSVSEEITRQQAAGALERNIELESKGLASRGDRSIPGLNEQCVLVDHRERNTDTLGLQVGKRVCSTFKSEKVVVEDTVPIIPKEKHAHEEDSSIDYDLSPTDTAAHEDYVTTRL
# Protein Wnt-3a = Protein Wnt-3a (Mus musculus, UniProt P27467); experiment: Wnt3a-driven reporter signaling inhibition, dose response, selectivity assay for Gli-SUFU antagonist project, Wnt-LIGHT cells, luminescence (AID 651570); assay type: functional; conditions: read-out: IC50_Mean;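 note: Wnt-LIGHT reporter cells stimulated with conditioned medium from Wnt3a-producing cells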
# Chain of Protein Wnt-3a (P27467 whole entry): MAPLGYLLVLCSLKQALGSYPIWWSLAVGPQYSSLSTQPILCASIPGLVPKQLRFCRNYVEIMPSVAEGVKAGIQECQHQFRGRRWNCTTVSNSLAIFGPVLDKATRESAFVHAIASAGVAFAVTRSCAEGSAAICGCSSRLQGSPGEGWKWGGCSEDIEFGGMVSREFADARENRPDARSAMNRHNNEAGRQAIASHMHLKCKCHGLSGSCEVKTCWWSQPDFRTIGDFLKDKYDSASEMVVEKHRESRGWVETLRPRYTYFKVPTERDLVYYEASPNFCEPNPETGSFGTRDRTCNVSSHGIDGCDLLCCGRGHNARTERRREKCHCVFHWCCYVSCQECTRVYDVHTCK
# Escherichia coli = experiment: microbe, parasite or virus in culture
# [13] = growth suppression of beta-catenin-knockout colon cells, dose response, cell-based, HCT116, human colon tumor (AID 1045); assay type: functional;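 note: HCT116 colon tumor cells with beta catenin knocked out; cells exposed to compound for 60 hours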
# [14] = C. albicans growth with fluconazole, confirmation, fluorescence, retest (AID 2467); assay type: functional, cell-based
# [15] = growth suppression of PTEN-null colon cells, dose response, cell-based, HCT116 PTEN knockout (AID 1047); assay type: functional;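 note: HCT116 colon tumor cells with PTEN knocked out; cells exposed to compound for 60 hours before readout; potency for loss of cell viability measured by luminescence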
# [16] = NIH-3T3 fibroblast cytotoxicity, dose response, cytotoxicity control, cell-based, fluorescence, Alamar Blue, secondary assay (AID 2327); assay type: functional;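 note: NIH-3T3 mouse fibroblasts cultured with fluconazole at 8 µg/mL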
smiles,measurement,setting,value
c1ccc(CNc2nc(-c3ccccn3)nc3ccccc23)cc1,AC50,[1],80.1 µM (active)
same,EC50,[2],2.57 µM (active)
same,AC50,INS1,2.62 µM (active)
same,EC50,Streptococcus,6.86 µM (active)
same,EC50,Streptokinase A,> 150 µM (not active)
Cc1cccc(NC(=O)CSc2cccc3cccnc23)c1C,AC50,[1],91.7 µM (active)
Cc1ccc(Nc2ncnc(-n3cccc3)n2)cc1Cl,AC50,[3],> 52 µM (inactive)
Cc1ccccc1N(CC(=O)NCc1ccc2c(c1)OCO2)C(=O)C1CSC(=O)C1 (stereo not drawn),IC50,Fatty acid synthase [4],4.48 µM (active)
same,IC50,Fatty acid synthase [5],5.85 µM (active)
CNc1cccc2c1C(=O)c1ccccc1C2=O,IC50,[6],> 66 µM (inactive)
same,IC50,[7],49.1 µM (inactive)
same,IC50,Protein skinhead-1,> 100 µM (inactive)
same,IC50,Nonstructural protein 1,8.18 µM (active)
CCOC(=O)c1c(NC(=O)CN2CCN(C)CC2)sc(C(=O)Nc2ccccc2)c1C,CC50,Vero,> 25 µM (active)
c1csc(Cn2nnnc2CN2CCN(c3nc4ccccc4s3)CC2)c1,IC50,Protein skinhead-1,> 100 µM (inactive)
O=C1C=C(c2cccc(Cl)c2O)C[C@@H](c2ccc(F)cc2)C1,IC50,[8],1.14 µM (active)
same,IC50,[9],2.61 µM (active)
Cc1ccc(C(=O)N/C(=C\c2cn(S(=O)(=O)N(C)C)c3ccccc23)C(=O)NCCN2CCOCC2)cc1,IC50,Fatty acid synthase [4],16.5 µM (active)
same,IC50,Fatty acid synthase [5],12.7 µM (active)
C[C@H]1CN([C@@H](C)CO)C(=O)c2cccc(NC(=O)c3ccncc3)c2O[C@H]1CN(C)C(=O)Nc1ccccc1,AC50,[10],2.61 µM (active)
same,IC50,[11],13.8 µM (active)
COc1ccc(C2=Nn3c(nnc3-c3ccccn3)SC2)cc1,AC50,[1],125 µM (active)
Cc1ccc([N+](=O)[O-])cc1NC(=O)c1ccc(C(C)(C)C)cc1,IC50,Fatty acid synthase [4],4.59 µM (active)
same,IC50,Fatty acid synthase [5],5.57 µM (active)
Cc1sc(-c2ccccn2)nc1OC(=O)c1ccc(F)cc1F,IC50,[8],16.6 µM (active)
same,IC50,[9],3.57 µM (active)
O=C(NCCc1cccc(Cl)c1)c1ccc(OC2CCN(Cc3ccccn3)CC2)cc1,EC50,[12],0.944 µM (active)
same,IC50,Protein Wnt-3a,28.8 µM (inactive)
COc1ccccc1/C=C1\SC(=S)N(CCC(=O)NCCc2ccc(O)cc2)C1=O,CC50,Vero,> 25 µM (active)
O=C(CSc1nc(-c2ccco2)cc(C(F)(F)F)n1)NC1CCCCCCC1,IC50,Protein skinhead-1,> 100 µM (inactive)
C[C@H](CO)N1C[C@H](C)[C@H](CN(C)Cc2ccc(C(F)(F)F)cc2)Oc2c(NC(=O)CCCCCC(=O)Nc3ccccc3N)cccc2C1=O,AC50,[10],1.92 µM (active)
C[C@H](CO)N1C[C@H](C)[C@H](CN(C)Cc2ccc(C(=O)Nc3ccccc3N)cc2)Oc2ccc(N(C)C)cc2CC1=O,AC50,[10],2.03 µM (active)
C[C@H](CO)N1C[C@H](C)[C@H](CN(C)S(=O)(=O)c2ccccc2)Oc2ccc(NC(=O)Nc3ccc(C(F)(F)F)cc3)cc2CC1=O,AC50,[10],4.13 µM (active)
O=[N+]([O-])c1ccc(O)c(/C=N/Nc2nc3ccccc3[nH]2)c1,EC50,[2],0.716 µM (active)
same,AC50,INS1,0.559 µM (active)
same,EC50,Streptococcus,1.56 µM (active)
same,AC50,Escherichia coli,25.6 µM (active)
same,IC50,Nonstructural protein 1,10.3 µM (active)
S=C(Nc1ccccc1)Nc1nc2ccccc2n1CCOc1ccc(Cl)cc1,EC50,[13],16 µM (active)
same,IC50,Protein skinhead-1,> 100 µM (inactive)
same,EC50,[14],2.58 µM (active)
same,EC50,[15],17.1 µM (active)
same,EC50,[16],11.1 µM (active)
